Data from patent US8871772B2, “Therapeutic methods and compounds” (Ampio Pharmaceuticals, Inc., priority 2008, dated 2014).

Legend:
[1] = system: STTG grade 4 astrocytoma cell line; test: Proliferation of STTG cancer cells, Promega cell titer assay; assay type: cell-based; conditions: 96 hours, negative number = increase
Method: Assays were performed to determine the effect of Cpd. 5 (synthesis described in Example 1) on proliferation of two cancer cell lines. These two cell lines were STTG grade 4 astrocytoma cell line and AU565 breast cancer cell line. Both cell lines were obtained from American Type Culture Collection, Rockville, Md. (ATCC).
To perform the assays, a 50 mM stock solution of Cpd. 5 was prepared in DMSO and frozen at −80° C. Aliquots of the stock solution were removed and 100 μM dilutions were made in Iscove's modified Dulbecco's medium (IMDM; obtained from ATCC) supplemented with 10% fetal bovine serum (FBS) and penicillin/streptomycin solution. Controls containing equivalent amounts of DMSO to the 100 μM solution were mixed for comparative purposes. 100 μl of the resulting solutions were then added to 96 well culture plates in triplicate and placed in a 37° C. incubator with 5% CO2 to warm.
At this point, cells were removed from passage flasks using trypsin and counted using trypan blue to establish cell counts/ml and viability. For all experiments, viability of cells was greater than 95%. Solutions of 4,000 cells/100 μl were prepared in the medium from above and 100 μl of the solutions were added to each well of the plates. The plates were placed back in the incubator and incubated with the compounds for 96 hours.
Following incubation, cell proliferation was assayed by adding 20 μl Promega cell titer aqueous one reagent to each well. […] The plates were incubated at 37° C. for an additional 4-18 hours to allow the colorimetric assay to develop, and the OD of each well was determined in a microplate reader using a 530 nm filter. The OD of wells containing cell titer reagent in culture medium with no cells was subtracted from the OD of all experimental readings.
The % decrease of the total cell titer signal was determined using the following formula. […] The p values were calculated versus diluent controls.

Akt = Akt phosphorylation in AU565 breast cancer cells, CASE ELISA (S473); assay type: cell-based; conditions: Homo sapiens, IGF-1 stimulated; for inhibition at 50 µM: AU565, 50 μM
Method: Assays were performed to determine the effect of Cpd. 5 (synthesis described in Example 1) on phosphorylation of Akt in the AU565 breast cancer cell line. Akt (or protein kinase B, PKB) is a serine/threonine kinase that promotes cellular survival. Akt is activated in response to many different growth factors, including IGF-1, EGF, bFGF, insulin, interleukin-3 (IL-3), IL-6, heregulin and VEGF. Akt has three isoforms, and activation of all three isoforms is similar in that phosphorylation of two sites is necessary for full activity. Once activated, Akt exerts anti-apoptotic effects through phosphorylation of substrates that directly or indirectly regulate apoptosis. Activation of the phosphatidylinositol 3 kinase (PI3K)/Akt signaling pathway contributes to tumorigenesis in many types of tissues, including breast, ovarian, brain, prostate and lymph tissues.
AU565 cells were grown in 75 cm^2 flasks using Iscove's modified Dulbecco's medium (IMDM; obtained from Lonza) supplemented with 10% fetal bovine serum (FBS, HyClone) and 1% penicillin/streptomycin solution (Lonza). Cells were removed from the flasks using trypsin/EDTA (Lonza) and counted using trypan blue to establish cell counts. […]
Following this incubation, 100 μl of serum-free IMDM containing either 0 or 400 ng/ml insulin-like growth factor-1 (IGF-1) (obtained from Sigma), an Akt phosphorylation promoter, were added, and the plates incubated at 37° C., 5% CO2, for 1 more hour. At the end of this time, the cells were fixed immediately with 4% formaldehyde, refrigerated, and the extent of phosphorylation of Akt determined using the Akt Cellular Activation of Signaling ELISA (CASE™ Kit for AKT […]; SABiosciences, Frederick, Md.) following the manufacturer's protocols. The CASE™ Kit for AKT S473 quantifies the amount of activated (phosphorylated) Akt protein relative to total Akt protein in parallel assays using a conventional ELISA format with colorimetric detection. […] Both primary antibodies are detected using a horseradish peroxidase-labeled secondary antibody. […]
The results were calculated as follows. […]

Row | SMILES | MEAN % DECREASE of cell titer signal ([1]; 50 μM) | inhibition at 10 µM (Akt; AU565, 10 μM) | inhibition at 50 µM (Akt) | MEAN % DECREASE of cell titer signal ([1]; 20 μM)
1 | COC(=O)C(c1ccc(-c2ccccc2)cc1)C1NC(=O)CNC1=O (centres unmarked) [Cpd. 5, biphenyl-4-yl-(3,6-dioxo-piperazin-2-yl)-acetic acid methyl ester] | 78.74% | 104% | 92% | 
2 | O=c1cc(N2CCOCC2)oc2c(-c3ccccc3)cccc12 [LY294002, reference compound] |  |  | 92.4% | −46.72%
